# Legend:
# [1] = Antiproliferative activity against human ICC13-7 cells assessed as inhibition of cell growth incubated for 3 days by Cell-titer glo assay; conditions: ICC13-7, 72 h
# [2] = test system: CC-LP-1; assay: Antiproliferative activity against human CC-LP-1 cells expressing FGFR2 V565F mutant assessed as inhibition of cell growth incubated for 3 days by Cell-titer glo assay; conditions: CC-LP-1, 72 h
# [3] = test system: SNU-16; assay: Antiproliferative activity against human SNU-16 cells assessed as inhibition of cell growth incubated for 5 days by Cell-titer glo assay; conditions: SNU-16, 120 h
# [4] = test system: CC-LP-1; assay: Antiproliferative activity against human CC-LP-1 cells expressing FGFR2 N550K mutant assessed as inhibition of cell growth incubated for 3 days by Cell-titer glo assay; conditions: CC-LP-1, 72 h
# [5] = test system: RT-112; assay: Antiproliferative activity against human RT-112 cells expressing FGFR3 V555M mutant assessed as inhibition of cell growth incubated for 5 days by Cell-titer glo assay; conditions: RT-112, 120 h
# [6] = test system: RT-112; assay: Antiproliferative activity against human RT-112 cells assessed as inhibition of cell growth incubated for 5 days by Cell-titer glo assay; conditions: RT-112, 120 h
# [7] = test system: RT-112; assay: Antiproliferative activity against human RT-112 cells expressing FGFR3 K650M mutant assessed as inhibition of cell growth incubated for 5 days by Cell-titer glo assay; conditions: RT-112, 120 h
# [8] = test system: CC-LP-1; assay: Antiproliferative activity against human CC-LP-1 cells assessed as inhibition of cell growth incubated for 3 days by Cell-titer glo assay; conditions: CC-LP-1, 72 h
# [9] = test system: CC-LP-1; assay: Antiproliferative activity against human CC-LP-1 cells expressing FGFR2 N550H mutant assessed as inhibition of cell growth incubated for 3 days by Cell-titer glo assay; assay type: functional, cell-based; conditions: CC-LP-1, 72 h
# [10] = test system: RT-112; assay: Antiproliferative activity against human RT-112 cells expressing FGFR3 N540K mutant assessed as inhibition of cell growth incubated for 5 days by Cell-titer glo assay; conditions: RT-112, 120 h
# [11] = test system: RT-112; assay: Antiproliferative activity against human RT-112 cells expressing FGFR3 assessed as inhibition of cell growth incubated for 5 days by Cell-titer glo assay; conditions: RT-112, 120 h
# [12] = Antitumor activity against patient derived STO357 PDX cells xenografted in mouse assessed as tumor growth inhibition at 6 mg/kg,po administrated once daily for 3 weeks relative to control; conditions: Homo sapiens, 504 h, read-out: TGI
# [13] = Antiproliferative activity against human ICC13-7 cells expressing FGFR2 V565F mutant assessed as inhibition of cell growth incubated for 10 days by Cell-titer glo assay; conditions: ICC13-7, 240 h
# [14] = Antiproliferative activity against human ICC13-7 cells expressing FGFR2 N550K mutant assessed as inhibition of cell growth incubated for 10 days by Cell-titer glo assay; conditions: ICC13-7, 240 h
# [15] = AUC (0 to 24 hrs) in Beagle dog at 10 mg/kg,po administrated at 0.25 to 24 hrs by LC-MS/MS analysis; assay type: ADME, organism-based, Canis lupus familiaris; conditions: in vivo, time 0.25-24 hrs
# [16] = Total clearance in Sprague-Dawley rat at 5 mg/kg,iv administrated at 0.25 to 24 hrs by LC-MS/MS analysis; assay type: ADME, organism-based; conditions: in vivo, time 0.25-24 hrs
# [17] = AUC (0 to 24 hrs) in Sprague-Dawley rat at 15 mg/kg,po administrated at 0.25 to 24 hrs by LC-MS/MS analysis; assay type: ADME, organism-based; conditions: in vivo, time 0.25-24 hrs
# [18] = Cmax in Beagle dog at 10 mg/kg,po administrated at 0.25 to 24 hrs by LC-MS/MS analysis; assay type: ADME, organism-based, Canis lupus familiaris; conditions: in vivo, time 0.25-24 hrs
# [19] = Cmax in Sprague-Dawley rat at 15 mg/kg,po administrated at 0.25 to 24 hrs by LC-MS/MS analysis; assay type: ADME, organism-based; conditions: in vivo, time 0.25-24 hrs
# [20] = Half life in Beagle dog at 5 mg/kg,iv administrated at 0.25 to 24 hrs by LC-MS/MS analysis; assay type: ADME, organism-based, Canis lupus familiaris; conditions: in vivo, time 0.25-24 hrs
# [21] = Total clearance in Beagle dog at 5 mg/kg,iv administrated at 0.25 to 24 hrs by LC-MS/MS analysis; assay type: ADME, organism-based, Canis lupus familiaris; conditions: in vivo, time 0.25-24 hrs
# [22] = Oral bioavailability in Sprague-Dawley rat at 15 mg/kg administrated at 0.25 to 24 hrs by LC-MS/MS analysis; assay type: ADME, organism-based; conditions: in vivo, time 0.25-24 hrs
# [23] = Half life in Sprague-Dawley rat at 5 mg/kg,iv administrated at 0.25 to 24 hrs by LC-MS/MS analysis; assay type: ADME, organism-based; conditions: in vivo, time 0.25-24 hrs
# [24] = Intrinsic clearance in human liver microsomes; assay type: ADME, Microsome; conditions: read-out: CLH
# [25] = Oral bioavailability in Beagle dog at 10 mg/kg administrated at 0.25 to 24 hrs by LC-MS/MS analysis; assay type: ADME, organism-based, Canis lupus familiaris; conditions: in vivo, time 0.25-24 hrs
# [26] = Intrinsic clearance in human hepatocyte measured per 10^6 cells; assay type: ADME, cell-based; conditions: hepatocytes, read-out: CLH
SMILES,IC50 [1] [nM],IC50 [2] [nM],IC50 [3] [nM],IC50 [4] [nM],IC50 [5] [nM],IC50 [6] [nM],IC50 [7] [nM],IC50 [8] [nM],IC50 [9] [nM],IC50 [10] [nM],IC50 [11] [nM],IC50 [13] [nM],IC50 [14] [nM],also measured
C=CC(=O)N1CC[C@H](n2nc(C#Cc3cc(OC)cc(OC)c3)c3c(N)ncnc32)C1 [FUTIBATINIB],1.8,105,4.7,5.5,390,6.7,74.3,1.3,1.4,73.4,19.6,143,13.8,inhibition in vivo at 6 mg/kg [12]: 48%
C=CC(=O)N1C[C@@H](n2nc(C#Cc3cc4ncn(C5CC5)c4cc3Cl)c(C(N)=O)c2NC)C[C@@H]1COC,2.2,1.8,6,6.5,19.5,7.2,12.8,4.3,,26.3,11.2,0.9,6.1,AUC(0-t) [15]: 498 ng·h/mL; clearance [16]: 26.8 mL/min/kg; AUC(0-t) [17]: 1500 ng·h/mL; Cmax [18]: 289 ng/mL; Cmax [19]: 519 ng/mL; half-life [20]: 296 min; clearance [21]: 44.4 mL/min/kg; bioavailability [22]: 16.4%; half-life [23]: 370 min; microsomal CLint [24]: 106 µL/min/mg; bioavailability [25]: 13.1%; hepatocyte CLint [26]: 14.4 µL/min/1e6 cells
CCN1CCN(c2ccc(Nc3cc(N(C)C(=O)Nc4c(Cl)c(OC)cc(OC)c4Cl)ncn3)cc2)CC1 [INFIGRATINIB],7.6,> 2280,12.4,432,352,6.2,218,7.3,28.8,777,10,> 1890,352,
COc1cc(OC)cc(N(CCNC(C)C)c2ccc3ncc(-c4cnn(C)c4)nc3c2)c1 [ERDAFITINIB],1.1,1370,2.7,94.8,603,1.3,39,2.3,10.8,107,2.4,> 2800,131,

# Source: ChEMBL document CHEMBL5537196, “Discovery of KIN-3248, An Irreversible, Next Generation FGFR Inhibitor for the Treatment of Advanced Tumors Harboring FGFR2 and/or FGFR3 Gene Alterations” (J Med Chem, 2024)
